This is an account of results in patent US12516055B2, “Protein kinase inhibitors and uses thereof for the treatment of diseases and conditions” (University of Houston System, priority 2019, dated 2026).

In data set [1] the test system is TNF/IDN-treated human Hela cells expressing RIPK3. In words: Protection from necroptosis in TNF/IDN-treated Hela-RIPK3 cells (CellTiter-Glo). The data set is classed as cell-based.
Description: (§2) IC50/LD50 values were determined for inhibition of recombinant RIPK3, inhibition of necroptosis in LPS/IDN-treated murine RAW264.7 macrophages and TNF/IDN-treated human Hela cells expressing RIPK3, RIPK3 binding by the inhibitors in live cells (NanoBRET assay), and induction of RIPK3-dependent apoptosis (i.e., on-target toxicity). Assays were performed using ADPGlo (kinase assay), CellTiter-Glo (viability), and NanoBRET (target engagement) assays.
(§3) After incubation with drugs, 15 μL of CellTiter-Glo reagent is added to the wells and incubated for 10 min Luminescence signals are determined using appropriate luminescence plate-reader (typical integration time 0.3 sec).
The subject of data set [2] is LPS/IDN-treated murine RAW264.7 macrophages. The data set can be described thus: Protection from necroptosis in LPS/IDN-treated RAW264.7 macrophages (CellTiter-Glo). The data set is classed as cell-based.
Description: as §2, §3
In data set [3] the test system is RIPK3 and MLKL phosphorylation. In words: RIPK3 and MLKL phosphorylation in RAW264.7 macrophages (Western blot, FIG. 31). The data set is classed as cell-based. To be noted: LPS 10 ng/ml + IDN6556 20 μM. Here is the method:
Necroptosis was induced by the combination of LPS (10 ng/ml) and pan-caspase inhibitor IDN6556 (20 μM). Note that LPS is a TLR4 ligand that, like TNF, can activate RIPK3 (and necroptosis) in the presence of a caspase inhibitor. The asterisk indicates a non-specific band sometimes see in pMLKL immunoblots. Samples are subjected to SDS-PAGE gele electrophoresis and Western blotting using RIPK3, phospho-Thr231/Ser232-RIPK3, MLKL and phospho-Ser345-MLKL antibodies (Abcam).

In data set [4] the test system is Hela-RIPK3 cells. Conditions: Mandal et al. 2014, one cell under both toxicity columns; cited from earlier work.
For data set [5], the target named is T1, RIPK3 (Homo sapiens, UniProt Q9Y572). The data set can be described thus: Inhibition of recombinant RIPK3 (ADP-Glo kinase assay). The data set is classed as biochemical. Conditions: recombinant RIPK3, ADPGlo; read-out: Inhibition of RIPK3, RIPK3 protein IC50.
Description: as §2
(§4) For ADP-Glo assays, recombinant RIPK3 protein (20 ng per reaction) is diluted in the reaction buffer consisting of 50 mM HEPES, pH 7.5, 50 mM NaCl, 30 mM MgCl2, 1 mM DTT, 0.05% bovine serum albumin (BSA), 0.02% CHAPS. Diluted protein is added to low volume white 384 well plates (2 μL/well). […] Reactions are initiated by the addition of 2 μL of 100 μM ATP in the reaction buffer. Plates are sealed with plastic coverslips and incubated at room temperature for 4 h. Reactions are stopped by the addition of 5 μL of ADP-Glo reagent (Promega) and ADP generation reaction is performed for 40 mM at room temperature Luminescence signal is generated by the addition of 10 μL of Kinase detection reagent (Promega) for 30 mM at room temperature Luminescence signals are determined using appropriate luminescence plate-reader (typical integration time 0.3-1 sec). To calculate percent inhibition, average background signal is subtracted from test well and maximal signal wells. Inhibition, %=(1−(test signal/maximal signal))*100. The percent inhibition at a specified concentration is determined or IC50 values are calculated based on a dose range of inhibitor concentrations using non-linear regression in GraphPad Prism software. […] After incubation with drugs, 15 μL of CellTiter-Glo reagent is added to the wells and incubated for 10 min Luminescence signals are determined using appropriate luminescence plate-reader (typical integration time 0.3 sec). To calculate percent viability, Viability, %=(1−(test signal/maximal viability in the untreated wells))*100.
The target of data set [6] is T1, RIPK3. In words: RIPK3 binding in live HEK cells (NanoBRET target engagement). Also on record: expressed in transfected cells; host or cells: HEK cells.
Description: as §2
The next data set has as its system NOD2 cellular signaling. The data set can be described thus: NOD2 signaling assay in HEK-Blue cells (NFkB-SEAP reporter). The data set is classed as cell-based. To be noted: Homo sapiens, L18-MDP stimulated, read-out: EC50 HEK Blue (μM) RIPK2. As for the experimental part: HEK-Blue cells expressing human NOD2 and NFkB-SAEP reporter (Invivogen) are seeded into 96 well clear plates at 7.5×10^3 cells per well in 100 μL of DMEM media supplemented with 10% FBS and 1% antibiotic-antimycotic mix. Cells are allowed to attach for 48 h in 5% CO2 tissue culture incubator at 37° C. On the morning of the experiment, media in the wells is replaced with 100 μL of HEK-Blue detection media (Invivogen). Cells are treated with the inhibitors, diluted in DMSO (0.5 μL per well) for […] in 5% CO2 tissue culture incubator at 37° C. After that, cells are stimulated by the addition of 1 ng/well L18-MDP (Invivogen). Cells are incubated in 5% CO2 tissue culture incubator at 37° C. for 8 h and absorbance, corresponding to the SEAP in the media, is determined in Wallac3V plate reader (Perkin Elmer). Inhibition, %=(1−((sample signal-unstimulated and DMSO treated cells)/(L18−MDP stimulated and DMSO treated cells−unstimulated and DMSO treated cells)))*100.
(§1) Prepared compounds were evaluated for their ability to inhibit RIPK2 and ALK2 enzyme activities and NOD2 cellular signaling using the methods described above.

In another data set the target is T2, human ALK2 (Homo sapiens, UniProt Q04771).
T2 sequence (Q04771 21-509): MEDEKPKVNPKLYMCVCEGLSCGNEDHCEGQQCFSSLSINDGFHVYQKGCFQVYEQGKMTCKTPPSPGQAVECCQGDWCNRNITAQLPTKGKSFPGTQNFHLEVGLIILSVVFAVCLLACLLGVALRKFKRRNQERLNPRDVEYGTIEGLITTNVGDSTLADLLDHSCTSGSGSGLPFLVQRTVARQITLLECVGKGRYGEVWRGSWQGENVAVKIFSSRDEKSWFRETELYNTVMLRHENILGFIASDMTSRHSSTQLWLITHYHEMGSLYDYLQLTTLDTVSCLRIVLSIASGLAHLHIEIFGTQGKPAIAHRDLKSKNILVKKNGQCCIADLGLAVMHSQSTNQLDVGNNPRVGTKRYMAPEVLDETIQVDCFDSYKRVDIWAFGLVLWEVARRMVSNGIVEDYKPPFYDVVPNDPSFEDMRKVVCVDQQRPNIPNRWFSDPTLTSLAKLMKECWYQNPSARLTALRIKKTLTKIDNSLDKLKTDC
The data set can be described thus: ALK2 enzyme assay (33P-casein). Conditions: 10 μM ATP. The data set is classed as biochemical. Here is the method: Enzyme inhibitory activity was evaluated in a standard kinase enzyme assay by incubating human ALK2 with the protein substrate casein (1 mg/mL) and γ-^33ATP (10 μM) in the presence of various concentrations of test compounds (10 nM 100 μM). After 30 min the amount of ^33P-casein was determined.
as §1

In data set [7] the test system is Hela-RIPK3 cells.
Description: as §2
For ADP-Glo assays, recombinant RIPK3 protein (20 ng per reaction) is diluted in the reaction buffer consisting of 50 mM HEPES, pH 7.5, 50 mM NaCl, 30 mM MgCl2, 1 mM DTT, 0.05% bovine serum albumin (BSA), 0.02% CHAPS. Diluted protein is added to low volume white 384 well plates (2 μL/well). […] Reactions are stopped by the addition of 5 μL of ADP-Glo reagent (Promega) and ADP generation reaction is performed for 40 mM at room temperature Luminescence signal is generated by the addition of 10 μL of Kinase detection reagent (Promega) for 30 mM at room temperature Luminescence signals are determined using appropriate luminescence plate-reader (typical integration time 0.3-1 sec). […] The percent inhibition at a specified concentration is determined or IC50 values are calculated based on a dose range of inhibitor concentrations using non-linear regression in GraphPad Prism software. […]
Setting [8] is: Mus musculus, LPS/IDN-treated RAW264.7 cells, read-out: Protection from necroptosis, RAW264.7 cells IC50.

Like-named read-outs stand apart in the source and are kept apart here. Marks after values point to notes of the source that are not given here. A value given as a limit tells only on which side of the number the result lay.

T1 sequence (Q9Y572 whole entry, species assumed): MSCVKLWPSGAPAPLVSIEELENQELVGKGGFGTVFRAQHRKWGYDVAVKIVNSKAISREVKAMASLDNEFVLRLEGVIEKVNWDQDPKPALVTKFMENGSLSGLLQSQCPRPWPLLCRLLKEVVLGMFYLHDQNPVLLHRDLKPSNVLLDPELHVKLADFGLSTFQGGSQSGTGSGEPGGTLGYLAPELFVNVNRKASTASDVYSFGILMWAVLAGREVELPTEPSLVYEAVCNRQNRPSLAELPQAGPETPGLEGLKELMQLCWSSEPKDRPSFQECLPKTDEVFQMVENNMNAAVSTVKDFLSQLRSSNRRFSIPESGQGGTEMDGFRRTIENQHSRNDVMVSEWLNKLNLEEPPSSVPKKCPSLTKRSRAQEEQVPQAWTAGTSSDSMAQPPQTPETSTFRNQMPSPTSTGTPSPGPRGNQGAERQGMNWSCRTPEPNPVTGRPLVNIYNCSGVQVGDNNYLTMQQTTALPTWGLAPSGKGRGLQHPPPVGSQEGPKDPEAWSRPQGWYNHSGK
Description for RAW264.7 cells: as §2, §4

Take `CC(C)S(=O)(=O)c1ccc2nccc(Nc3ccc4scnc4c3)c2c1` [GSK′872, reference compound]: the IC50 in [1] is 3210 nM; in data set [2] (LPS/IDN-treated RAW264.7 cells, read-out: Protection from necroptosis, RAW264.7 cells IC50), 1290 nM. The “Block of RIPK3 and MLKL phosphorylation” value in data set [3] was “block RIPK3 and MLKL phosphorylation”. For the same compound, in the data set with Hela-RIPK3 cells [4], the “Toxicity LD50 (published value)” value is ~10* μM.

Turning to `CN1CCN(c2cccc(Nc3cc4c(cn3)cc(-c3cccc(O)c3)c(=O)n4C)c2)CC1` [compound 38], the IC50 at RIPK3 [5] stood at 10 nM; in [2] (setting [8]), 20 nM; at RIPK3 [6], 20 nM. Further, the “Toxicity, RAW264.7 cells LD50” value in the data set with RAW264.7 cells was above 10 µM.

Consider `CCN(CC)CCOc1ccc(Nc2ncc3cc(-c4c(Cl)cccc4Cl)c(=O)n(CC(C)C)c3n2)cc1` [compound 10], for which, at RIPK3 [5], the IC50 is 80 nM.

Take `Cn1c(=O)c(-c2ccccc2Cl)cc2cnc(Nc3cccc(N4CCS(=O)(=O)CC4)c3)cc21` [UH15-28, 3-(2-chlorophenyl)-7-((3-(1,1-dioxidothiomorpholino)phenyl)amino)-1-methyl-1,6-naphthyridin-2(1H)-one]: the EC50 with NOD2 cellular signaling amounted to 0.07 µM.

On human ALK2, `CN1CCN(c2cccc(Nc3cc4c(cn3)cc(-c3ccccc3Cl)c(=O)n4C)c2)CC1` [UH15-37, 3-(2-chlorophenyl)-1-methyl-7-((3-(4-methylpiperazin-1-yl)phenyl)amino)-1,6-naphthyridin-2(1H)-one] had an IC50 of 32300 nM. Moreover, the EC50 with NOD2 cellular signaling was found to be 0.05 µM.

For `Cc1ccc(-c2cc3cnc(Nc4cccc(S(C)(=O)=O)c4)nc3n(C)c2=O)c(Cl)c1` [compound 20], the values for the IC50 on RIPK3 [5] and on RIPK3 [6] were 280 nM and 950 nM, respectively.

For `CCN(CC)CCOc1ccc(Nc2ncc3cc(-c4ccccc4)c(=O)n(CC)c3n2)cc1` [compound 4], the IC50 at RIPK3 [5] is 300 nM; in data set [2] (Mus musculus, RAW264.7, read-out: Protection from necroptosis, RAW264.7 cells IC50), 180 nM. For the same compound, in the data set on RAW264.7 cells, the “Toxicity, RAW264.7 cells LD50” value is 5.2 µM.

Turning to `CN1CCN(c2cccc(Nc3cc4c(cn3)cc(-c3ccccc3Cl)c(=O)n4C)c2)CC1` [compound 37], the IC50 on RIPK3 [5] was found to be 50 nM; in data set [1] (Homo sapiens), 60 nM; in [2] (setting [8]) it was 250 nM; at RIPK3 [6] it was 80 nM. The “Toxicity, Hela-RIPK3 cells LD50” value in the data set with Hela-RIPK3 cells [7] is above 10 µM. Further, in the data set with RAW264.7 cells, the “Toxicity, RAW264.7 cells LD50” value is above 10 µM.

On to `CCN(CC)CCOc1ccc(Nc2ncc3cc(-c4c(Cl)cccc4Cl)c(=O)n(CCOC)c3n2)cc1` [compound 6], for which the IC50 on RIPK3 [5] and at RIPK3 [6] was 20 nM each time.
